US20050101595A1, “N-containing cycloalkyl-substituted amino-thiazole derivatives and pharmaceutical compositions for inhibiting cell proliferation and methods for their use” (PFIZER INC., priority 2003, published 2005)
pIC50, pKi: −log10 of the molar value. Where two headings read alike, the source gives them in different places. Blank lines part the entries; values can stand above or below the compound they belong to.

Tests used:
CDK2/Cyclin A = CDK2/Cyclin A (Homo sapiens, UniProt P24941); assay: Inhibition of CDK2/Cyclin A Retinoblastoma Kinase Activity; format: biochemical; settings: for pKi: apparent Ki, CDK2/proteolyzed cyclin A, Rb fragment substrate, 25 μM ATP; for CDK2 % Inhibition At 0.03 μM: Table 2
Procedure, shortened: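 Radiometric filter-binding readout of phosphate transfer to an Rb substrate fragment by purified CDK2/truncated cyclin A at 10 or 19 nM. Run at pH 7.4 with 25 μM ATP, 30 °C, 60–75 min, linear rates; background without enzyme subtracted, Ki from competitive-inhibition models.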

[1] = molecular target: human CDK4 and genetically truncated (1-264) cyclin D3 (Homo sapiens, UniProt P11802); assay: Inhibition of CDK4/Cyclin D Retinoblastoma Kinase Activity; format: biochemical; settings: for pKi: apparent Ki, CDK4/truncated cyclin D3, Rb fragment substrate, 25 μM ATP
Sequence of human CDK4 and genetically truncated (1-264) cyclin D3 (P11802 whole entry, the tested form may be a part): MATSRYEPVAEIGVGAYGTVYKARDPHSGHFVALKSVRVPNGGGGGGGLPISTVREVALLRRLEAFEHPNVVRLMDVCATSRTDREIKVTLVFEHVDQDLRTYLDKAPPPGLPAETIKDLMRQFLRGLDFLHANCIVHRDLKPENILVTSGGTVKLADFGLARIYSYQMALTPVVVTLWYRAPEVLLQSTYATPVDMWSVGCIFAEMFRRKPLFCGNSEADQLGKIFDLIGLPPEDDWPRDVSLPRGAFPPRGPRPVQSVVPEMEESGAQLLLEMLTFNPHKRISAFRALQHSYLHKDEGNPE
Sequence of human CDK4 and genetically truncated (1-264) cyclin D3 (P30281 1-264 partner): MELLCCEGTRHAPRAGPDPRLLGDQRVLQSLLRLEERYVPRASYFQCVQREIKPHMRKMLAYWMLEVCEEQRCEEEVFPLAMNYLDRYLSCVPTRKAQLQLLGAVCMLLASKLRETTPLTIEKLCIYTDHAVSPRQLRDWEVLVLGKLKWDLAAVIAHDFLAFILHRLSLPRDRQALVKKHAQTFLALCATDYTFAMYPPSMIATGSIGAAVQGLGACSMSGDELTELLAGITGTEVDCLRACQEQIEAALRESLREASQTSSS
Procedure, shortened: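 Apparent Ki values come from competitive or competitive tight-binding inhibition fits of background-corrected 32P/33P incorporation into His-tagged Rb fragment (386-928), captured on nitrocellulose. Reaction: 5 nM insect-cell-expressed human CDK4 with cyclin D3 (1-264), 25 μM ATP, pH 7.4 HEPES, 2% DMSO, 30° C., 20 min, extended to 60 min for tight-binding inhibitors.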

HCT-116 cell line = assay: Inhibition of cell growth, tetrazolium salt (MTT) assay; format: cell-based; settings: for pIC50: Homo sapiens, HCT-116, 120 h, MTT, three to five days, read-out: HCT-116 IC50; for HCT-116 % Inhibition at 0.25 μM: 0.25 μM compound
Procedure, shortened: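 Growth inhibition is scored relative to cells receiving only 0.5% (v/v) DMSO. Plated cells rest 4 h, then take compound for three to five days at 37° C; MTT reduction to formazan is read at 540 nm.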

pKi (CDK2/Cyclin A): 9.12
pKi [1]: 8.80
pIC50 (HCT-116 cell line; first HCT-116 column (c4)): 6.74
pIC50 (HCT-116 cell line; second HCT-116 column (c5)): 6.19
Structure (SMILES): CNc1ccc(S(=O)(=O)N2CCC(Nc3nc(N)c(C(=O)c4c(F)cccc4F)s3)CC2)cn1 [Example G7, 1-{4-Amino-2-[1-(6-methylamino-pyridine-3-sulfonyl)-piperidin-4-ylamino]-thiazol-5-yl}-1-(2,6-difluoro-phenyl)-methanone]

CDK2 % Inhibition At 0.03 μM (CDK2/Cyclin A; 0.03 μM compound): 23%
CDK4 % Inhibition at 0.03 μM ([1]; 0.03 μM compound, Table 2): 12%
Structure (SMILES): Nc1nc(NC2CCN(C(=O)Nc3ccc([N+](=O)[O-])cc3)CC2)sc1C(=O)c1c(F)cccc1F [Example O36]
HCT-116 % Inhibition at 0.25 μM (HCT-116 cell line; HCT-116, Table 2): 28%

CDK2 % Inhibition at 0.03 μM (CDK2/Cyclin A; at 0.03 μM): 5%
CDK4 % Inhibition at 0.03 μM ([1]; at 0.03 μM): 23%
Structure (SMILES): Nc1nc(NC2CCN(C(=O)c3cnn(-c4ccccc4)c3C(F)(F)F)CC2)sc1C(=O)c1c(F)cccc1F [Example R52]
HCT-116 % Inhibition at 0.1 μM (HCT-116 cell line; HCT-116 cells, at 0.1 μM): 2%
HCT-116 5 Inhibition at 0.25 μM (HCT-116 cell line; HCT-116 cells): 49

CDK2 % Inhibition At 0.03 μM (CDK2/Cyclin A; 0.03 μM compound): 36%
CDK4 % Inhibition at 0.03 μM ([1]; 0.03 μM compound, Table 2): 18%
Structure (SMILES): Nc1nc(NC2CCN(C(=O)NC(=O)Oc3ccccc3)CC2)sc1C(=O)c1c(F)cccc1F [Example O62]
HCT-116 % Inhibition at 0.25 μM (HCT-116 cell line; HCT-116, Table 2): 41%

pKi (CDK2/Cyclin A): 7.16
pKi [1]: 7.74
pIC50 (HCT-116 cell line; first HCT-116 column (c4)): 7.24
pIC50 (HCT-116 cell line; second HCT-116 column (c5)): 6.80
Structure (SMILES): COc1cc(C(=O)N2CCC(Nc3nc(N)c(C(=O)c4c(F)cccc4F)s3)CC2)cc(OC)c1C [Example D17, {4-Amino-2-[1-(3,5-dimethoxy-4-methyl-benzoyl)-piperidin-4-ylamino]-thiazol-5-yl-}(2,6-difluoro-phenyl)-methanone]

pKi (CDK2/Cyclin A): 8.96
pKi [1]: 9.15
pIC50 (HCT-116 cell line; first HCT-116 column (c4)): 7.32
pIC50 (HCT-116 cell line; second HCT-116 column (c5)): < 6.30
Structure (SMILES): CN1CCC[C@@H](COc2ccc(S(=O)(=O)N3CCC(Nc4nc(N)c(C(=O)c5c(F)cccc5F)s4)CC3)cn2)C1 (stereo in doubt) [Example H10, 1-(4-Amino-2-{1-[6-(1-methyl-piperidin-3R-ylmethoxy)-pyridine-3-sulfonyl]-piperidin-4-ylamino}-thiazol-5-yl)-1-(2,6-difluoro-phenyl)-methanone]

CDK2 % Inhibition at 0.03 μM (CDK2/Cyclin A; at 0.03 μM): 53%
CDK4 % Inhibition at 0.03 μM ([1]; at 0.03 μM): 64%
Structure (SMILES): COC(=O)CCCCCCCCC(=O)N1CCC(Nc2nc(N)c(C(=O)c3c(F)cccc3F)s2)CC1 [Example R76]
HCT-116 % Inhibition at 0.1 μM (HCT-116 cell line; HCT-116 cells, at 0.1 μM): 0%
HCT-116 5 Inhibition at 0.25 μM (HCT-116 cell line; HCT-116 cells): 38

CDK2 % Inhibition at 0.03 μM (CDK2/Cyclin A; at 0.03 μM): 67%
CDK4 % Inhibition at 0.03 μM ([1]; at 0.03 μM): 83%
Structure (SMILES): Cc1cc(C)cc(C(=O)N2CCC(Nc3nc(N)c(C(=O)c4c(F)cccc4F)s3)CC2)c1 [Example R142]
HCT-116 % Inhibition at 0.1 μM (HCT-116 cell line; HCT-116 cells, at 0.1 μM): 86%
HCT-116 5 Inhibition at 0.25 μM (HCT-116 cell line; HCT-116 cells): 99

CDK2 % Inhibition at 0.03 μM (CDK2/Cyclin A; at 0.03 μM): 28%
CDK4 % Inhibition at 0.03 μM ([1]; at 0.03 μM): 55%
Structure (SMILES): Nc1nc(NC2CCN(C(=O)c3cccc(Cl)c3)CC2)sc1C(=O)c1c(F)cccc1F [Example R132]
HCT-116 % Inhibition at 0.1 μM (HCT-116 cell line; HCT-116 cells, at 0.1 μM): 15%
HCT-116 5 Inhibition at 0.25 μM (HCT-116 cell line; HCT-116 cells): 60

CDK2 % Inhibition at 0.03 μM (CDK2/Cyclin A; at 0.03 μM): 65%
CDK4 % Inhibition at 0.03 μM ([1]; at 0.03 μM): 78%
Structure (SMILES): CC(C)S(=O)(=O)c1csc(C(=O)N2CCC(Nc3nc(N)c(C(=O)c4c(F)cccc4F)s3)CC2)c1Cl [Example R62]
HCT-116 % Inhibition at 0.1 μM (HCT-116 cell line; HCT-116 cells, at 0.1 μM): 0%
HCT-116 5 Inhibition at 0.25 μM (HCT-116 cell line; HCT-116 cells): 38

CDK2 % Inhibition at 0.03 μM (CDK2/Cyclin A; 0.03 μM compound, Table 4): 23%
CDK4 % Inhibition at 0.03 μM ([1]; 0.03 μM compound, Table 4): 65%
Structure (SMILES): Nc1nc(NC2CCN(C(=O)c3ccc(C(F)(F)F)cc3)CC2)sc1C(=O)c1c(F)cccc1F [Example Q33]
HCT-116 % Inhibition at 0.1 μM (HCT-116 cell line; 0.1 μM compound, HCT-116, Table 4): 0%
HCT-116 % Inhibition at 0.25 μM (HCT-116 cell line; HCT-116, Table 4): 16%

pKi (CDK2/Cyclin A): 9.57
pKi [1]: 9.16
pIC50 (HCT-116 cell line; first HCT-116 column (c4)): 6.05
pIC50 (HCT-116 cell line; second HCT-116 column (c5)): 5.64
Structure (SMILES): Nc1nc(NC2CCN(S(=O)(=O)c3cnc(Cl)nc3)CC2)sc1C(=O)c1c(F)cccc1F [Example F47]

CDK2 % Inhibition at 0.03 μM (CDK2/Cyclin A; at 0.03 μM): −5%
CDK4 % Inhibition at 0.03 μM ([1]; at 0.03 μM): 32%
Structure (SMILES): COC(=O)CCCCC(=O)N1CCC(Nc2nc(N)c(C(=O)c3c(F)cccc3F)s2)CC1 [Example R4]
HCT-116 % Inhibition at 0.1 μM (HCT-116 cell line; HCT-116 cells, at 0.1 μM): 3%
HCT-116 5 Inhibition at 0.25 μM (HCT-116 cell line; HCT-116 cells): 47

CDK2 % Inhibition at 0.03 μM (CDK2/Cyclin A; 0.03 μM compound, Table 3): 63%
CDK4 % Inhibition at 0.03 μM ([1]; 0.03 μM compound, Table 3): 73%
Structure (SMILES): Nc1nc(NC2CCN(S(=O)(=O)c3ccc([N+](=O)[O-])cc3)CC2)sc1C(=O)c1c(F)cccc1F [Example P19]
HCT-116 % Inhibition at 0.1 μM (HCT-116 cell line; 0.1 μM compound, HCT-116, Table 3): 19%
HCT-116 % Inhibition at 0.25 μM (HCT-116 cell line; HCT-116, Table 3): 30%
